Source: US5807885A, “Amidine derivatives with nitric oxide synthetase activities” (priority 1996, dated 1998)

Legend:
[1] = target: T1, neuronal nitric oxide synthetase (Rattus norvegicus, UniProt P29476); assay: Screen A: screen for neuronal nitric oxide synthetase inhibitory activity; assay type: biochemical; details: for IC50: neuronal isoform, rat hippocampus or cerebellum supernatant, read-out: IC50 (concentration of drug substance which gives 50% enzyme inhibition in the assay)
T1 construct: Enzyme was isolated from rat hippocampus or cerebellum; from tissue; host or cells: cerebellum or hippocampus of male Sprague-Dawley rat, 20,000 g supernatant
Description: (A) Screen for neuronal nitric oxide synthetase inhibitory activity
Enzyme was isolated from rat hippocampus or cerebellum. The cerebellumn or hippocampus of a male Sprague-Dawley rat (250-275 g) is removed following CO2 anaesthesia of the animal and decapitation. Cerebellar or hippocampal supernatant is prepared by homogenisation in 50 mM Tris-HCl with 1 mM EDTA buffer (pH 7.2 at 25° C.) and centifugation for 15 minutes at 20,000 g. Residual L-arginine is removed from the supernatant by chromatography through Dowex AG-50W-X8 sodium form and hydrogen form columns successively, and further centrifugation at 1000 g for 30 seconds.
For the assay, 25 μl of the final supernatant is added to each of 12 test tubes containing 25 μl L-arginine solution (of concentration 18 μM ^1 H-L-arginine, 96 nM ^3 H-L-arginine) and either 25 μl of an assay buffer (50 mM HEPES, 1 mM EDTA, 1.5 mM CaCl2, pH 7.4) or 25 μl of test compound in the buffer at 22° C. To each test tube was added 75 μl of complete assay buffer (50 mM HEPES, 1 mM EDTA, 1.5 mM CaCl2, 1 mM DTF, 100 μM NADPH, 10 μg/ml calmodulin, pH 7.4) to initiate the reaction and the reaction is stopped after 10 minutes by addition of 2 ml of a termination buffer (20 mM HEPES, 2 mM EDTA, pH 55).
Labelled L-citrulline is separated from labelled L-arginine by chromatography over a Dowex AG-50W-X8 200-400 mesh column. 1 ml of each terminated reaction is added to an individual 1 ml column and the eluant combined with that from two 1 ml distilled water washes and 16 ml of scintillation cocktal The L-citrulline is then quantified by scintillation counting.
IC50 values for test compounds were initially estimated from the inhibiting activity of 1, 10 and 100 μM solutions of the compounds. Compounds that inhibited the enzyme by at least 50% at 10 μM were retested using more appropriate concentrations so that an IC50 could be determined.

[2] = target: T2, macrophage nitric oxide synthetase (Mus musculus, UniProt P29477); assay: Screen B: screen for macrophage nitric oxide synthetase activity; assay type: biochemical, murine; details: macrophage isoform (Screen B) versus neuronal isoform (Screen A)
T2 construct: Nitric oxide synthetase is produced by cells in response to interferon-γ (IFNγ) and lipopolysaccharide (LPS); endogenous in cells; host or cells: murine macrophage cell line J774A-1, induced with IFN-gamma and LPS (cell line from Imperial Cancer Research Fund)
Description: The enzyme nitric oxide synthetase has a number of isoforms and compounds of formula I, or pharmaceutically acceptable salts thereof, may be screened for nitric oxide synthetase inhibitory activity by procedures based on those of Bredt and Snyder in Proc. Natl. Acad. Sci (1990) 87, 682-685 and Forstermann et. al. (1992) Eur. J. Pharm. 225,161-165 as follows. Nitric axide synthetase converts ^3 H-L-arginine to ^3 H-L-citrulline which can be separated by cation exchange chromatography and quantified by liquid scintillation counting.
(B) Screen for macrophage nitric oxide synthetase activity
Enzyme is prepared; after induction, from the cultured murine macrophage cell line J774A-1 (obtained from laboratories of the Imperial Cancer Research Fund). J774A-1 cells are cultured in Dulbecco's Modified Eagles Medium (DMEM) supplemented with 10% foetal bovine serum, 4 mM L-glutamine and antibiotics (100 units/ml penicillin G, 100 μg/ml streptomycin & 0.25 μg/m amphotericin B). Cells are routinely grown in […] flasks containing 35 ml medium kept at 37° C. and in a humidified atmosphere containing 5% CO2.
Nitric oxide synthetase is produced by cells in response to interferon-γ (IFNγ) and lipopolysaccharide (LPS). […]
Labelled L-citrulline is separated from labelled L-arginine using Dowex AG-50W. […] After allowing the samples to dry the L-citrulline is quantified by scintillation counting. […]

[3] = target: T3, endothelial nitric oxide synthetase (Homo sapiens, UniProt P29474); assay: Screen C: screen for endothelial nitric oxide synthetase inhibitory activity; assay type: biochemical
T3 construct: Enzyme may be isolated from human umbilical vein endothelial cells (HUVECs); host or cells: human umbilical vein endothelial cells (HUVECs)
T3 sequence (P29474 2-1203): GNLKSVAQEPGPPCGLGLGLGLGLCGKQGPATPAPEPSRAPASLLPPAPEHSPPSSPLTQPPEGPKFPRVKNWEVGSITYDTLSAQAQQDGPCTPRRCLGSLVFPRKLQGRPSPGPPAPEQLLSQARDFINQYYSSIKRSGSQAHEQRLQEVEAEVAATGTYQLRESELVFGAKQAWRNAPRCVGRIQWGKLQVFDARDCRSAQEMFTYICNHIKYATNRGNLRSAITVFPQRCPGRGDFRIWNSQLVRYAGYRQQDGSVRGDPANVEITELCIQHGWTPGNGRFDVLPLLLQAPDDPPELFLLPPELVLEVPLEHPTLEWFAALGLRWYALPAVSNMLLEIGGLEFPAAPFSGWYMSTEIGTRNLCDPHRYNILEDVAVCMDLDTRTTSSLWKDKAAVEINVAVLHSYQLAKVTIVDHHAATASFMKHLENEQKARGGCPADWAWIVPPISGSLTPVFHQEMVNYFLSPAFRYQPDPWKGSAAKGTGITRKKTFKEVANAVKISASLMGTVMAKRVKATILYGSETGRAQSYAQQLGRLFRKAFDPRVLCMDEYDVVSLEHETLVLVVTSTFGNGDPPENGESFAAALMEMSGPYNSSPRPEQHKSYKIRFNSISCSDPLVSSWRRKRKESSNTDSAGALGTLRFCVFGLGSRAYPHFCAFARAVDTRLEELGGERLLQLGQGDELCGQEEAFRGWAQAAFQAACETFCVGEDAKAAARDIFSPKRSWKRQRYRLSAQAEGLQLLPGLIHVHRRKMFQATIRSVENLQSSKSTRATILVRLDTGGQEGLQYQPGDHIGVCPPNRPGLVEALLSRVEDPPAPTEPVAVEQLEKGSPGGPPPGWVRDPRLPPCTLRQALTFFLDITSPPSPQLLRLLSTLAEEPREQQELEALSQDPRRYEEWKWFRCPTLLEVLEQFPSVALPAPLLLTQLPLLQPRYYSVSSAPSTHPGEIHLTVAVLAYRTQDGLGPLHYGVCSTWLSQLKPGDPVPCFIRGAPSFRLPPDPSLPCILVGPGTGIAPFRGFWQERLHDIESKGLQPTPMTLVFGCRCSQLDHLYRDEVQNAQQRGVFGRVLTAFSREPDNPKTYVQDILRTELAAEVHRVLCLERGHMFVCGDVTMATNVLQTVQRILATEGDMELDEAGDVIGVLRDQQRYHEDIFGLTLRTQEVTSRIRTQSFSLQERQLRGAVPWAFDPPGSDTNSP
Description: (C) Screen for endothelial nitric oxide synthetase inhibitory activity
Enzyme may be isolated from human umbilical vein endothelial cells (HUVECs) by a procedure based on that of Pollock et al (1991) Proc. Nat. […] HUVECs were purchased from Clonetics Corp (San Diego, Calif., USA) and cultured to confluency. Cells can be maintained to passage 35-40 without significant loss of yield of nitric oxide synthetase. When cells reach confluency, they are resuspended in Dulbecco's phosphate buffered saline, centrifuged at 800 rpm for 10 mins, the cell pellet homogenised in ice-cold 50 mM Tris-HCl, 1 mM EDTA, 10% glycerol, 1 mM phenylmethylsulphonylfluoride, 2 μM leupeptin at pH 4.2. Following centrifugation at 34,000 rpm for 60 mins, the pellet is solubilised in the homogenisation buffer which also contains 20 mM CHAPS. After a 30 min incubation on ice, the suspension is centrifuged at 34,000 rpm for 30 mins. The resulting supernatant is stored at -80° C. until use. […]
Labelled L-citrulline is separated from labelled L-arginine by chromatography over a Dowex AG-50W-X8 200-400 mesh column. […] The L-citrulline is then quantified by scintillation counting. […]

T1 sequence (P29476 whole entry, canonical isoform): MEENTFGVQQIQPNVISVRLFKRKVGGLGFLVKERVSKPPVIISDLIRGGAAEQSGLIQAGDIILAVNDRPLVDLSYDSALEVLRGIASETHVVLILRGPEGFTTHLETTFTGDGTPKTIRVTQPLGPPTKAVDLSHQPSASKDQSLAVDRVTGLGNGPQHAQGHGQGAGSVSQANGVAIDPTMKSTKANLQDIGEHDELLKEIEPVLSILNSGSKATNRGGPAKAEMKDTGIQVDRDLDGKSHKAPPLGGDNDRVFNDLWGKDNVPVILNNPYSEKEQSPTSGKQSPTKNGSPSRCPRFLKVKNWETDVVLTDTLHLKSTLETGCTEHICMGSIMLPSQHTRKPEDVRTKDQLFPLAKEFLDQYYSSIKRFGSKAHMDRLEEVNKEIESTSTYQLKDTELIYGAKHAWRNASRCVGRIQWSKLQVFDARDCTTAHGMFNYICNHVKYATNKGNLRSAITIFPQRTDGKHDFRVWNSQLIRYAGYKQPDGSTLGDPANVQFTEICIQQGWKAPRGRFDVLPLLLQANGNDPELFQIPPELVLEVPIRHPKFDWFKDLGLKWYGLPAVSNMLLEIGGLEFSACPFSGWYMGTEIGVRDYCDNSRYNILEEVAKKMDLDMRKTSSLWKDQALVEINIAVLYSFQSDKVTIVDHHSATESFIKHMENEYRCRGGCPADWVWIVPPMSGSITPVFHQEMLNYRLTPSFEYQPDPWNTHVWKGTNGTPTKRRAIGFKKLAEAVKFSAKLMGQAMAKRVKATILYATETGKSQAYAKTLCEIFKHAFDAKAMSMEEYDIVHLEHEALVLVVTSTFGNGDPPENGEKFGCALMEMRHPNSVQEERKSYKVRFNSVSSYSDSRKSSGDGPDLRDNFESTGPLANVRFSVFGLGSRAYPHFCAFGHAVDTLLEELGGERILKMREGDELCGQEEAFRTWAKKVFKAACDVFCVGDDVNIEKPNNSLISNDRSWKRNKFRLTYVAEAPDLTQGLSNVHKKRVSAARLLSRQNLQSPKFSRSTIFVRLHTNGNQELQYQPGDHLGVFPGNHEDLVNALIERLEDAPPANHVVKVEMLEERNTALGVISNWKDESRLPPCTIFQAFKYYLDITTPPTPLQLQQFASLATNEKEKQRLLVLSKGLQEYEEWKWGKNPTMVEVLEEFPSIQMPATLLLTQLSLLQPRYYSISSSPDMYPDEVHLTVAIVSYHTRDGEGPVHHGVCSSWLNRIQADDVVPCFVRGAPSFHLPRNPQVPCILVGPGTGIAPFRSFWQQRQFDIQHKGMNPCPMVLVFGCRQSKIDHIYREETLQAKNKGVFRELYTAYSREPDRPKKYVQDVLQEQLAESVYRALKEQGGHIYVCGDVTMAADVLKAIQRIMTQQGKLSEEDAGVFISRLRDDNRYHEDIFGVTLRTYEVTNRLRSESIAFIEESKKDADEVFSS

Row | SMILES | IC50 [1] [µM] | further results
1 | N=C(Nc1ccc(CCCC(=O)N2CCOCC2)cc1)c1cccs1 [27(a), N-(4-(3-((4-morpholinyl)carbonyl)propyl)phenyl)-2-thiophenecarboximidamide] | < 10 | –
2 | NC(=Nc1ccc(CCNCc2ccccc2)cc1)c1cccs1 [Example 1, N-(4-(2-((phenylmethyl)amino)ethyl)phenyl)-2-thiophenecarboximidamide] | < 10 | IC50 in Screen B relative to IC50 in Screen A [2]: more than 10 times; IC50 in Screen C relative to IC50 in Screen A ([3]; endothelial isoform (Screen C) versus neuronal isoform (Screen A)): more than 10 times
3 | N=C(Nc1ccc(C(=O)Nc2ccccc2)cc1)c1cccs1 [Example 27(b), N-(4-((phenylamino)carbonyl)phenyl)-2-thiophenecarboximidamide] | < 10 | –
4 | NC(=Nc1ccc(NC(=O)N(c2ccccc2)c2ccccc2)cc1)c1cccs1 [Example 48, N-[4-(((Diphenylamino)carbonyl)amino)phenyl]-2-thiophenecarboxamidine] | < 100 | –
5 | CN(CCc1ccc(NC(=N)C(F)(F)F)cc1)Cc1ccccc1 [Example 72, N-(4-(2-((phenylmethyl)(methyl)amino)ethyl)phenyl)trifluoroacetimidamide] | – | inhibition at 10 µM ([1]; at 10 μM): 17%
6 | NC(=N[N+](=O)[O-])NCCC[C@H](N)C(=O)O [N-nitro-L-arginine, reference compound] | – | inhibition at 1 µM ([3]; Screen C, at a concentration of 1 μM, HUVEC enzyme, read-out: inhibition of nitric oxide synthetase (reference standard)): 70 to 90%
